Patent US20230303570A1, “KINASE INHIBITORS AND USES THEREOF” (ABM Therapeutics Corporation, priority 2020, published 2023)

What was measured:
[1] = biological target: HPK1 (MAP4K1) (Homo sapiens, UniProt Q92918); experiment: HPK1 (MAP4K1) kinase Lantha screen assay; assay type: biochemical
Outline: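 Recombinant MAP4K1 preincubated 10 min with compound (6-point dilution, duplicates) in 50 mM HEPES pH 7.5, 10 mM MgCl2, then reacted with Fluorescein-PKC substrate and ATP for 90 min at room temperature. Antibody detection solution stopped reaction; after 60 min, TR-FRET read at ex 340 nm, em 520/495 nm.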

[2] = biological target: c-Kit (Homo sapiens, UniProt P10721); experiment: cKit kinase mobility shift assay; assay type: biochemical
Method: (§1) The effect of the compounds on the activity of cKit, RET and AXL kinases were assessed by Mobility shift assay. • 1. 1× kinase base buffer and stop buffer for testing kinases were prepared • 1-1) 1× Kinase base buffer (50 mM HEPES, pH 7.5, 0.01% Triton X-100) • 1-2) Stop buffer (100 mM HEPES, pH 7.5, 0.015% Brij-35, 0.2% Coating Reagent #3, 50 mM EDTA) • 2. Compound and assay plate preparation: the compound was diluted to 50× of the final desired highest inhibitor concentration in reaction by 100% DMSO. 100 μl of this compound dilution was transferred to a well in a 96-well plate. For example, if the highest desired concentration was 5 μM, then 250 μM of compound DMSO solution was prepared in this step. For all compounds, the compound was serially diluted by transferring 10 μl to 70 μl of 100 DMSO in the next well and so forth for a total of 5 concentrations. 100 μl of 100% DMSO was added to two empty wells for no compound control and no enzyme control in the same 96-well plate. The plate was labeled as source plate. The intermediate plate was prepared by transferring 10 μl of compound from source plate to a new 96-well plate as the intermediate plate, adding 90 μl of 1× kinase buffer to each well of the intermediate plate, mixing the compounds in intermediate plate for 10 min on shaker. 5 μl of each well from the 96-well intermediate plate were transferred to a 384-well plate in duplicates. For example, A1 of the 96-well plate was transferred to A1 and A2 of the 384-well plate. A2 of the 96-well plate was transferred to A3 and A4 of the 384-well plate, and so on. • 4. Kinase reaction: The assay plate already contained 5 μl of compound in 10% DMSO. A 2.5× enzyme solution was prepared by adding kinases (cKit, RET, or AXL) and DTT in 1× kinase base buffer. 2.5× enzyme solution was transferred to the assay plate (by adding 10 μl of 2.5× enzyme solution to each well of the 384-well assay plate). The plate was incubated at room temperature for 10 min. 2.5× peptide solution was prepared by adding FAM-labeled peptide, ATP, MgCl2 in the 1× kinase base buffer. 2.5× peptide solution was added to the assay plate by adding 10 μl of 2.5× peptide solution to each well of the 384-well assay plate. The plate was incubated at 28° C. for the specified period of time. 25 μl of stop buffer was added to stop reaction. Data was collected on Caliper.

[3] = Mouse pharmacokinetics study (intravenous and oral); assay type: in vivo; conditions: CD-1 mice
Description: The test articles were formulated in […] Hydroxypropyl-beta-cyclodextrin, either as a clear solution or fine suspension.

[4] = biological target: T1, Axl (Homo sapiens, UniProt P30530); experiment: AXL kinase mobility shift assay; assay type: biochemical
T1 sequence (P30530 26-894): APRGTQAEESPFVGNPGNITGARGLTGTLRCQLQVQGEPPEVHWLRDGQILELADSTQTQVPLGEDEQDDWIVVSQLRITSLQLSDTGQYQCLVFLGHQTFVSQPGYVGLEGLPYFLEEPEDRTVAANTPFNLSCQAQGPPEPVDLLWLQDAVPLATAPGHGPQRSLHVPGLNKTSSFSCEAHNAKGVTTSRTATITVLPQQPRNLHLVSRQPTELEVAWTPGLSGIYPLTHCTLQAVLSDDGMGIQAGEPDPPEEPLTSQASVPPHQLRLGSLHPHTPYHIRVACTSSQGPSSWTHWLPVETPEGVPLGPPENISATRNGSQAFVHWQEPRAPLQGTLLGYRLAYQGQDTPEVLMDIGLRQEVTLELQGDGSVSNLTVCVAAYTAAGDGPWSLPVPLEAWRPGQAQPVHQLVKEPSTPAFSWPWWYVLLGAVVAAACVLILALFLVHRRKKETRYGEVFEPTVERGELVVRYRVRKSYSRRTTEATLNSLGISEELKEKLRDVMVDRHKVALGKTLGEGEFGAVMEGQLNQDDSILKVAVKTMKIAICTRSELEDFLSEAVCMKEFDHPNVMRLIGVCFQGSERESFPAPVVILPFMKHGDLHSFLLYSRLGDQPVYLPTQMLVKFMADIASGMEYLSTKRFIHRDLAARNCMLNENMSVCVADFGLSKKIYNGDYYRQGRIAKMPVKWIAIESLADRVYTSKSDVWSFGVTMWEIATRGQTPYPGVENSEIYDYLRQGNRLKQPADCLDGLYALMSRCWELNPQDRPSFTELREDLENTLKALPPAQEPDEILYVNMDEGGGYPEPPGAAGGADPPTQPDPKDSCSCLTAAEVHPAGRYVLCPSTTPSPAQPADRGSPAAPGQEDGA
Method: as §1

HPK1 (MAP4K1), sequence (Q92918 whole entry, species assumed): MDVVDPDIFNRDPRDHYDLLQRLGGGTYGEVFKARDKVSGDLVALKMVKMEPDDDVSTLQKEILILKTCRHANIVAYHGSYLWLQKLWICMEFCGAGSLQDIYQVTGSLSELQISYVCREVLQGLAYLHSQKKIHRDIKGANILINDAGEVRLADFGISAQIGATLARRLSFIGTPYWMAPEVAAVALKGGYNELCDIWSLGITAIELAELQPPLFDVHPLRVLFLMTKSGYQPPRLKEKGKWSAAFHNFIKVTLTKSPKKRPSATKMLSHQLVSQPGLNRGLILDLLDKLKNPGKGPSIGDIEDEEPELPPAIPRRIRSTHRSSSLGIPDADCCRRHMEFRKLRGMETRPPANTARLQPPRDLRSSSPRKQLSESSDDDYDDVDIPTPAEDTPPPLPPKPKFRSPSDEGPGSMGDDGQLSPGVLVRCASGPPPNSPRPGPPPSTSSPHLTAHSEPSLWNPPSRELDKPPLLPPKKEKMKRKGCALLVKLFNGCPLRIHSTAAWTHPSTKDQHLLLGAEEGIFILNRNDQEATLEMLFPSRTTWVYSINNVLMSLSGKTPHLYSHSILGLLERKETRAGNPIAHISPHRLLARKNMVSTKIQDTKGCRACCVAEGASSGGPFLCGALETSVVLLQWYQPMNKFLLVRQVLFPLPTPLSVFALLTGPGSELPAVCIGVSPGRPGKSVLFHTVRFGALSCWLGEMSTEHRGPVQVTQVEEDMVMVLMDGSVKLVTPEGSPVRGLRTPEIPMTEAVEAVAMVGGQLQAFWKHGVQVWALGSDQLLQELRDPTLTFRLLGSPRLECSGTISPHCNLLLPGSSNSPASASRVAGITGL
c-Kit, sequence (P10721 26-976): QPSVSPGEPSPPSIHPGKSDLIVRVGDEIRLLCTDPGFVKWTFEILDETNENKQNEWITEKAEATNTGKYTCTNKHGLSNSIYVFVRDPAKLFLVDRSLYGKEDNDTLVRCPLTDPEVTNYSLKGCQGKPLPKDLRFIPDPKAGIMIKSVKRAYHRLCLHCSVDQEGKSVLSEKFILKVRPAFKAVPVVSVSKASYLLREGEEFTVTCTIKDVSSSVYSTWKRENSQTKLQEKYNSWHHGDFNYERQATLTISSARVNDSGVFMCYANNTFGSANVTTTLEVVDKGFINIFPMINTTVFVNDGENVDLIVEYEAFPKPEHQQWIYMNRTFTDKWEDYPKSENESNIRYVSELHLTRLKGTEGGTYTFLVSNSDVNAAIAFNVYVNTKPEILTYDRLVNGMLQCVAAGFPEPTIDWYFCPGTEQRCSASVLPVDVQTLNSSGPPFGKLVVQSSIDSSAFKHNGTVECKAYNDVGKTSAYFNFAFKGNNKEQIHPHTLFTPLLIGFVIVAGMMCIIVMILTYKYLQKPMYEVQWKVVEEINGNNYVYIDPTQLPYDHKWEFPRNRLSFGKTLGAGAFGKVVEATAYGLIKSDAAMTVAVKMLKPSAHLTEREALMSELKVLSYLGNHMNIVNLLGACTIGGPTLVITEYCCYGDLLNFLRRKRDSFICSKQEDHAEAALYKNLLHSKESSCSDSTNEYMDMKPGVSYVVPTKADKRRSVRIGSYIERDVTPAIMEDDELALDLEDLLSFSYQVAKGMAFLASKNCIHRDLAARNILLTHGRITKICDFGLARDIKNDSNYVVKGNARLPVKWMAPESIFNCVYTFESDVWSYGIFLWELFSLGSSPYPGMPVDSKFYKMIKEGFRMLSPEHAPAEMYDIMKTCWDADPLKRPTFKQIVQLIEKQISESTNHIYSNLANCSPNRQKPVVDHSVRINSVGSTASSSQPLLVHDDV

Row | IC50 [4] | other results | Compound
1 | – | IC50 [1]: < 0.1 µM; IC50 [2]: 0.1 to 10 µM; F ([3]; PO 25 mg/kg): 66.7 ± 14.3%; Vd ([3]; mouse, plasma, IV 5 mg/kg): 4.06 ± 0.37 L/kg; half-life ([3]; mouse, plasma, IV 5 mg/kg): 2.76 ± 0.22 h; clearance ([3]; mouse, plasma, IV 5 mg/kg, read-out: Clp): 17 ± 0.3 mL/min/kg; AUC ([3]; mouse, plasma, PO 25 mg/kg): 16300 ± 3490 ng·h/mL; Cmax ([3]; mouse, plasma, PO 25 mg/kg): 2560 ± 505 ng/mL; Tmax ([3]; mouse, plasma, PO 25 mg/kg): 2 h | Cc1cc(F)c(NC(=O)c2cc(C(F)(F)F)ccn2)cc1C1=Cc2cnc(NC3COC3)nc2N2CCN=C12 [Compound 178, N-(2-fluoro-4-methyl-5-(2-(oxetan-3-ylamino)-8,9-dihydroimidazo[1′,2′:1,6]pyrido[2,3-d]pyrimidin-6-yl)phenyl)-4-(trifluoromethyl)picolinamide]
2 | > 10 µM | IC50 [1]: 0.1 to 10 µM | CNc1ncc2c(n1)N1CCN=C1C(c1cc(NC(=O)c3cn(C(C)C)c(=O)n(-c4ccc(F)cc4)c3=O)ccc1C)=C2 [Compound 193, 3-(4-fluorophenyl)-1-isopropyl-N-(4-methyl-3-(2-(methylamino)-8,9-dihydroimidazo[1′,2′:1,6]pyrido[2,3-d]pyrimidin-6-yl)phenyl)-2,4-dioxo-1,2,3,4-tetrahydropyrimidine-5-carboxamide]
3 | > 10 µM | – | Cc1ccc(Nc2ncc3c(n2)N2CCN=C2C(c2cc(NC(=O)c4cn(C(C)C)c(=O)n(-c5ccc(F)cc5)c4=O)ccc2C)=C3)cn1 [Compound 266, 3-(4-fluorophenyl)-1-isopropyl-N-(4-methyl-3-(2-((6-methylpyridin-3-yl)amino)-8,9-dihydroimidazo[1′,2′:1,6]pyrido[2,3-d]pyrimidin-6-yl)phenyl)-2,4-dioxo-1,2,3,4-tetrahydropyrimidine-5-carboxamide]
4 | > 10 µM | – | CNc1ncc2c(n1)N1CCN=C1C(c1ccc(C(=O)Nc3cc(C(F)(F)F)ccn3)c(F)c1)=C2 [Compound 270, 2-fluoro-4-(2-(methylamino)-8,9-dihydroimidazo[1′,2′:1,6]pyrido[2,3-d]pyrimidin-6-yl)-N-(4-(trifluoromethyl)pyridin-2-yl)benzamide]
5 | 0.1 to 10 µM | – | CNc1ncc2c(n1)N1CCN=C1C(c1ccc(C(=O)Nc3cc(C(F)(F)F)ccn3)cc1)=C2 [Compound 273, 4-(2-(methylamino)-8,9-dihydroimidazo[1′,2′:1,6]pyrido[2,3-d]pyrimidin-6-yl)-N-(4-(trifluoromethyl)pyridin-2-yl)benzamide]
6 | 0.1 to 10 µM | – | CNc1ncc2c(n1)N1CCN=C1C(c1ccc(C(=O)Nc3ccccc3Cl)cc1)=C2 [Compound 275, N-(2-chlorophenyl)-4-(2-(methylamino)-8,9-dihydroimidazo[1′,2′:1,6]pyrido[2,3-d]pyrimidin-6-yl)benzamide]
7 | > 10 µM | IC50 [1]: 0.1 to 10 µM | CNc1ncc2c(n1)N1CCN=C1C(c1ccc(C(=O)Nc3cc(C(F)(F)F)ccn3)cc1C)=C2 [Compound 276, 3-methyl-4-(2-(methylamino)-8,9-dihydroimidazo[1′,2′:1,6]pyrido[2,3-d]pyrimidin-6-yl)-N-(4-(trifluoromethyl)pyridin-2-yl)benzamide]
8 | > 10 µM | – | CNc1ncc2c(n1)N1CCN=C1C(c1cc(NS(=O)(=O)c3ccccc3Cl)c(F)cc1C)=C2 [Compound 286, 2-chloro-N-(2-fluoro-4-methyl-5-(2-(methylamino)-8,9-dihydroimidazo[1′,2′:1,6]pyrido[2,3-d]pyrimidin-6-yl)phenyl)benzenesulfonamide]
9 | > 10 µM | – | CNc1ncc2c(n1)N1CCN=C1C(c1cc(NS(=O)(=O)c3ccccn3)c(F)cc1C)=C2 [Compound 292, N-(2-fluoro-4-methyl-5-(2-(methylamino)-8,9-dihydroimidazo[1′,2′:1,6]pyrido[2,3-d]pyrimidin-6-yl)phenyl)pyridine-2-sulfonamide]
10 | > 10 µM | – | CNc1ncc2c(n1)N1CCN=C1C(c1cc(NS(=O)(=O)Cc3ccccc3)c(F)cc1C)=C2 [Compound 293, N-(2-fluoro-4-methyl-5-(2-(methylamino)-8,9-dihydroimidazo[1′,2′:1,6]pyrido[2,3-d]pyrimidin-6-yl)phenyl)-1-phenylmethanesulfonamide]
11 | > 10 µM | – | CNc1ncc2c(n1)N1CCN=C1C(c1c(C)ccc(NS(=O)(=O)c3c(Cl)cccc3Cl)c1F)=C2 [Compound 296, 2,6-dichloro-N-(2-fluoro-4-methyl-3-(2-(methylamino)-8,9-dihydroimidazo[1′,2′:1,6]pyrido[2,3-d]pyrimidin-6-yl)phenyl)benzenesulfonamide]
12 | > 10 µM | – | CNc1ncc2c(n1)N1CCN=C1C(c1c(C)ccc(NS(=O)(=O)c3c(F)cccc3F)c1F)=C2 [Compound 297, 2,6-difluoro-N-(2-fluoro-4-methyl-3-(2-(methylamino)-8,9-dihydroimidazo[1′,2′:1,6]pyrido[2,3-d]pyrimidin-6-yl)phenyl)benzenesulfonamide]
13 | > 10 µM | – | CNc1ncc2c(n1)N1CCN=C1C(c1c(C)ccc(NS(=O)(=O)c3ccccc3C(F)(F)F)c1F)=C2 [Compound 298, N-(2-fluoro-4-methyl-3-(2-(methylamino)-8,9-dihydroimidazo[1′,2′:1,6]pyrido[2,3-d]pyrimidin-6-yl)phenyl)-2-(trifluoromethyl)benzenesulfonamide]
14 | > 10 µM | – | CNc1ncc2c(n1)N1CCN=C1C(c1c(C)ccc(NS(=O)(=O)c3ccccc3OC(F)(F)F)c1F)=C2 [Compound 299, N-(2-fluoro-4-methyl-3-(2-(methylamino)-8,9-dihydroimidazo[1′,2′:1,6]pyrido[2,3-d]pyrimidin-6-yl)phenyl)-2-(trifluoromethoxy)benzenesulfonamide]
15 | > 10 µM | – | Cc1ccc(NS(=O)(=O)c2cc(F)ccc2F)c(F)c1C1=Cc2cnc(NC3COC3)nc2N2CCN=C12 [Compound 302, 2,5-difluoro-N-(2-fluoro-4-methyl-3-(2-(oxetan-3-ylamino)-8,9-dihydroimidazo[1′,2′:1,6]pyrido[2,3-d]pyrimidin-6-yl)phenyl)benzenesulfonamide]
16 | > 10 µM | – | Cc1ccc(NS(=O)(=O)c2ccccc2Cl)c(F)c1C1=Cc2cnc(NC3COC3)nc2N2CCN=C12 [Compound 303, 2-chloro-N-(2-fluoro-4-methyl-3-(2-(oxetan-3-ylamino)-8,9-dihydroimidazo[1′,2′:1,6]pyrido[2,3-d]pyrimidin-6-yl)phenyl)benzenesulfonamide]
17 | 0.1 to 10 µM | – | CNc1ncc2c(n1)N1CCN=C1C(Oc1ccc(NC(=O)C3(C(=O)Nc4ccc(F)cc4)CC3)cc1)=C2 [Compound 345, N-(4-fluorophenyl)-N-(4-((2-(methylamino)-8,9-dihydroimidazo[1′,2′:1,6]pyrido[2,3-d]pyrimidin-6-yl)oxy)phenyl)cyclopropane-1,1-dicarboxamide]
